From the supplement of paper PMC10307832

How the values were obtained:
Assay in all cases: relative viability (nuclei count vs DMSO), 5 days (fraction); higher = more cells survive
Idelalisib + Navitoclax = compound: CC[C@H](Nc1ncnc2[nH]cnc12)c1nc2cccc(F)c2c(=O)n1-c1ccccc1 [Idelalisib] + CC1(C)CCC(c2ccc(Cl)cc2)=C(CN2CCN(c3ccc(C(=O)NS(=O)(=O)c4ccc(N[C@H](CCN5CCOCC5)CSc5ccccc5)c(S(=O)(=O)C(F)(F)F)c4)cc3)CC2)C1 [Navitoclax] (partner 0.5 µM)
Outline: (§1)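 Lung cancer cell lines, seeded in 1536-well plates, were treated the following day by pin tool with a single drug or with five library-drug doses (not always all listed) in √10 steps on top of a fixed anchor-drug dose. Cells were fixed and nuclei stained in one step after 5 days, and nuclei were counted. Relative viability is the nuclei count for treated wells divided by that for vehicle wells, reported as medians of duplicate plates.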

Pemetrexed + Trametinib = compound: Nc1nc2[nH]cc(CCc3ccc(C(=O)N[C@@H](CCC(=O)O)C(=O)O)cc3)c2c(=O)[nH]1 [Pemetrexed] + CC(=O)Nc1cccc(-n2c(=O)n(C3CC3)c(=O)c3c(Nc4ccc(I)cc4F)n(C)c(=O)c(C)c32)c1 [Trametinib] (partner 0.02 µM)
Outline: as §1

Pemetrexed + Vorinostat = compound: Nc1nc2[nH]cc(CCc3ccc(C(=O)N[C@@H](CCC(=O)O)C(=O)O)cc3)c2c(=O)[nH]1 [Pemetrexed] + O=C(CCCCCCC(=O)Nc1ccccc1)NO [Vorinostat] (partner 1 µM)
Outline: as §1

Pemetrexed + Phenformin = compound: Nc1nc2[nH]cc(CCc3ccc(C(=O)N[C@@H](CCC(=O)O)C(=O)O)cc3)c2c(=O)[nH]1 [Pemetrexed] + N=C(N)NC(=N)NCCc1ccccc1 [Phenformin] (partner 250 µM)
Outline: as §1

Cell Line	relative viability (Idelalisib + Navitoclax; first compound 0.04 µM)	relative viability (Idelalisib + Navitoclax; first compound 0.1265 µM)	relative viability (Idelalisib + Navitoclax; first compound 0.4 µM)	relative viability (Idelalisib + Navitoclax; first compound 1.265 µM)	relative viability (Idelalisib + Navitoclax; first compound 4 µM)	relative viability (Pemetrexed + Trametinib; first compound 0.002 µM)	relative viability (Pemetrexed + Trametinib; first compound 0.006325 µM)	relative viability (Pemetrexed + Trametinib; first compound 0.02 µM)	relative viability (Pemetrexed + Trametinib; first compound 0.06325 µM)	relative viability (Pemetrexed + Trametinib; first compound 0.2 µM)	relative viability (Pemetrexed + Vorinostat; first compound 0.002 µM)	relative viability (Pemetrexed + Vorinostat; first compound 0.006325 µM)	relative viability (Pemetrexed + Vorinostat; first compound 0.02 µM)	relative viability (Pemetrexed + Vorinostat; first compound 0.06325 µM)	relative viability (Pemetrexed + Vorinostat; first compound 0.2 µM)	relative viability (Pemetrexed + Phenformin; first compound 0.006325 µM)	relative viability (Pemetrexed + Phenformin; first compound 0.02 µM)	relative viability (Pemetrexed + Phenformin; first compound 0.06325 µM)	relative viability (Pemetrexed + Phenformin; first compound 0.2 µM)	relative viability (Pemetrexed + Phenformin; first compound 0.002 µM)
NCI-H1944	1.03	1.02	1.07	0.923	0.841	0.354	0.449	0.45	0.407	0.38	0.43	0.487	0.565	0.592	0.531	0.229	0.207	0.189	0.189	
A-427	0.939	0.91	1.01	1.06	0.811	0.785	0.794	0.794	0.696	0.733	0.855	0.865	0.867	0.876	0.708	0.42	0.377	0.308	0.355	0.298
NCI-H520	0.981	0.944	0.983	1.24	0.798	0.569	0.682	0.757	0.606	0.657	0.671	0.7	0.718	0.681	0.709	0.756	0.756	0.65	0.501	0.567
COR-L 105	0.794	1.04	0.805	0.893	0.52	0.442	0.423	0.47	0.479	0.453	0.954	0.784	0.849	0.857	0.688	0.45	0.49	0.524	0.449	0.405
NCI-H1755	0.964	0.959	0.923	0.836	0.687	0.737	0.809	0.775	0.731	0.732	0.716	0.813	0.776	0.751	0.624	0.409	0.647	0.627	0.507	0.594
NCI-H2085	1.23	1.16	0.951	0.938	0.764	0.605	0.47	0.553	0.583	0.576	0.763	0.775	0.897	0.817	0.806	0.685	0.735	0.808	0.779	0.664
NCI-H2023	1.05	1.02	0.994	0.945	0.939	0.502	0.553	0.537	0.392	0.183	0.306	0.595	0.676	0.372	0.15	0.397	0.473	0.354	0.203	0.343
HOP-62	1.01	1.03	1.01	1.29	1.03	0.431	0.389	0.386	0.399	0.327	0.387	0.581	0.721	0.626	0.547	0.675	0.659	0.716	0.611	0.567
